IC50 data for 22 compounds are collected here from patent publication US20240025884A1 (Dong-A ST Co., Ltd., priority 2022, published 2024).

The structures appear in SMILES notation.

In the test the target is GCN2 (Homo sapiens (Human), UniProt Q9P2K8). As to the kind of experiment: GCN2 Biochemical Assay (TR-FRET, GFP-eIF2S1 substrate phosphorylation). Particulars: read-out: IC50 (GCN2 Inhibitory Activity). How it is done: Experimental Example 1: GCN2 Biochemical Assay
Chain of GCN2 (Q9P2K8 whole entry): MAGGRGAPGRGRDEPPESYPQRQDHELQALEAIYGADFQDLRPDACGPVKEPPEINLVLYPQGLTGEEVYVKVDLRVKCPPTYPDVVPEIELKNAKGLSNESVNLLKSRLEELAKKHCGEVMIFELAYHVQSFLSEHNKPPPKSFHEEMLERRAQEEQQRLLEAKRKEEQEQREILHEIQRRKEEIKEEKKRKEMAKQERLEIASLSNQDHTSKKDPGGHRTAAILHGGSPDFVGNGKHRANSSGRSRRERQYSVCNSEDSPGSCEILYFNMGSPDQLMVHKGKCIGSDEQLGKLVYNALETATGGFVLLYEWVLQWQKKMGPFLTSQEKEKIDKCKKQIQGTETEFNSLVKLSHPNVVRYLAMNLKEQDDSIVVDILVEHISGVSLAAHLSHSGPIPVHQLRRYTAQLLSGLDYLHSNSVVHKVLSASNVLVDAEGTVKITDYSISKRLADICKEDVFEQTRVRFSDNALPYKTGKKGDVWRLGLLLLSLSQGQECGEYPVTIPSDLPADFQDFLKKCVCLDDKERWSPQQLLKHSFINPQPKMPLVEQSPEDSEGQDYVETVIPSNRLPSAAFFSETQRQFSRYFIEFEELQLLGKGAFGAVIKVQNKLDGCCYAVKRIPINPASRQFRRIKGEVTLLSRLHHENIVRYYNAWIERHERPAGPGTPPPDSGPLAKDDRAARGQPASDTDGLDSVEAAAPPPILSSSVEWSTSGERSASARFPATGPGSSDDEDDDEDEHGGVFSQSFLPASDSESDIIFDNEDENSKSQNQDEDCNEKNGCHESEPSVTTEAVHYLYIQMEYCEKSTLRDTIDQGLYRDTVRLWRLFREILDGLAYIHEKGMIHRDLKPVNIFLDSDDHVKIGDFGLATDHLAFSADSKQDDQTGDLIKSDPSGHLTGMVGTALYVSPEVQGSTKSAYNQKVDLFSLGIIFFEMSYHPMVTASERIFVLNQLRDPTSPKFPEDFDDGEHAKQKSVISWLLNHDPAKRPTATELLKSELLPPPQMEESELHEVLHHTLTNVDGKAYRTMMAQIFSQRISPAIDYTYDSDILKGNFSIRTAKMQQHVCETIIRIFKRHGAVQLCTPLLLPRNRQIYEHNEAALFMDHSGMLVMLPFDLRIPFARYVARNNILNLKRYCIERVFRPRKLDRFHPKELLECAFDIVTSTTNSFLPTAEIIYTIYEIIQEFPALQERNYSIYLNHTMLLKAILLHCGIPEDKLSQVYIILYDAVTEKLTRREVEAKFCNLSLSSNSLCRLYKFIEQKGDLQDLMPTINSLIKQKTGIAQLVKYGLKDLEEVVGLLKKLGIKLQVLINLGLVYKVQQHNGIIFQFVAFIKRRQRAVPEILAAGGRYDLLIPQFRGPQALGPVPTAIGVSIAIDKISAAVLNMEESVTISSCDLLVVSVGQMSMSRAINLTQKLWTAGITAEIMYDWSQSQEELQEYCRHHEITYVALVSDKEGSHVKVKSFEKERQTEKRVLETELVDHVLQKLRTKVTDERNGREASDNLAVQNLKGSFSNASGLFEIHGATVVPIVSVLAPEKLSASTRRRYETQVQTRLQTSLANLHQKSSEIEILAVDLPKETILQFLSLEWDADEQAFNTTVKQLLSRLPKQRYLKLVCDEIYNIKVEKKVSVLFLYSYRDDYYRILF
An inhibitory effect of the inventive compound on GCN2 was identified as follows.
384-well (Greiner #784075) (or 1536-well [Greiner #782075]) plates containing 60 nl (or 20 nl for 1536-well) of compound in 100% DMSO (10 concentrations serially diluted 3.16-fold) were prepared. Two copies of plates were used—one for the GCN2 assay and a second for an artifact plate. Working reagents were prepared as follows—reaction buffer: Tris pH 7.5 20 mM, MgCl2 5 mM, DTT 1 mM, Brij-35 0.005%, EGTA 0.5 mM in water; 2× enzyme solution: GCN2 (produced in-house) 1.6 nM in reaction buffer; 2× substrate solution: GFP-eIFS1 (Thermo Fisher Scientific, PV4809) 50 nM, ATP 0.2 mM, tRNA 0.4 mg/ml in reaction buffer; p-GFP-eIF2S1 (artifact) solution: p-GFP-eIFS1 (produced by incubation of 100 nM GFP-eIF2S1 in reaction buffer with 100 uM ATP and 1 nM PERK KD enzyme for 3 hr at room temperature) 2 nM in reaction buffer; 3× stop/antibody solution: p-GFP-EIF2S1 Th-Ab (Thermo Fisher Scientific, PV4816) 6 nM, AZ13933939 3 uM, BSA 3% in reaction buffer. Reagents were loaded onto a liquid dispenser (Certus FLEX, Trajan Scientific and Medical), and 3 ul (1 ul for 1536-well) of 2× enzyme solution, followed by 3 ul (1 ul for 1536-well) of 2× substrate solution was added to the plates. When small numbers of plates were processed, the enzyme solution was added first to all plates, then the valve used for the substrate solution was primed immediately prior to use. Plates were tapped or spun 1 min/1K/RT to ensure proper mixing, followed by incubation at room temperature for 70 mins, covered/stacked in the dark. For the artifact plate, 6 ul of p-GFP-eIF2S1 solution was added prior to adding the stop/antibody solution. 3 ul (1 ul for 1536-well) of 3× stop/antibody solution was added to the plates, followed by a spin-down for 1 min/1K/RT, and incubation for 2-3 hr, sealed or covered with lids in the dark at room temperature. Plates were read on a plate reader (PHERAstar FSX, BMF Labtech) at Ex 340/Em 490/Em 520 nm.
The term IC50 denotes the concentration that gives 50% inhibition. As to `C/C(=C\c1cccc2c1CN(c1cccc3c(-c4nc(Nc5cc(C)n(C)n5)ncc4C)c[nH]c13)C2=O)C(N)=O` [Example 361, (E)-3-(2-(3-(2-((1,5-dimethyl-1H-pyrazol-3-yl)amino)-5-methylpyrimidin-4-yl)-1H-indol-7-yl)-1-oxoisoindolin-4-yl)-2-methylacrylamide], the IC50 was under 10 nM.
As for `Cc1cnc(Nc2cc(C)n(C)n2)nc1-c1c[nH]c2c(N3Cc4c(cncc4-c4ccncc4)C3=O)cccc12` [Example 500, 2-(3-(2-((1,5-dimethyl-1H-pyrazol-3-yl)amino)-5-methylpyrimidin-4-yl)-1H-indol-7-yl)-7-(pyridin-4-yl)-1,2-dihydro-3H-pyrrolo[3,4-c]pyridin-3-one], the figure is under 10 nM; as for `Cc1cnccc1-c1ccc(F)c2c1CN(c1cccc3c(-c4nc(Nc5cc(C)n(C)n5)ncc4C)c[nH]c13)C2=O` [Example 487, 2-(3-(2-((1,5-dimethyl-1H-pyrazol-3-yl)amino)-5-methylpyrimidin-4-yl)-1H-indol-7-yl)-7-fluoro-4-(3-methylpyridin-4-yl)isoindolin-1-one], under 10 nM.
Regarding `CNC(=O)c1cc(O[C@H]2CCN(CC(=O)Nc3cccc4c(-c5nc(Nc6cc(C)n(C)n6)ncc5C)c[nH]c34)C2)no1` [Example 123, (S)-3-((1-(2-((3-(2-((1,5-dimethyl-1H-pyrazol-3-yl)amino)-5-methylpyrimidin-4-yl)-1H-indol-7-yl)amino)-2-oxoethyl)pyrrolidin-3-yl)oxy)-N-methylisoxazole-5-carboxamide], the IC50 is 10 to 100 nM.
Next, `Cc1cnc(Nc2cc(C)n(C)n2)nc1-c1c[nH]c2c(N3Cc4cccc(I)c4C3=O)cccc12` [Example 275, 2-(3-(2-((1,5-dimethyl-1H-pyrazol-3-yl)amino)-5-methylpyrimidin-4-yl)-1H-indol-7-yl)-7-iodoisoindolin-1-one]: 10 to 100 nM.
As for `Cc1cnc(Nc2cc(C)n(C)n2)nc1-c1c[nH]c2c(NC(=O)CN3CC[C@H](Oc4ccnc(NC5CCCC5)n4)C3)cccc12` [Example 209, (S)-2-(3-((2-(cyclopentylamino)pyrimidin-4-yl)oxy)pyrrolidin-1-yl)-N-(3-(2-((1,5-dimethyl-1H-pyrazol-3-yl)amino)-5-methylpyrimidin-4-yl)-1H-indol-7-yl)acetamide], the figure is 10 to 100 nM; as for `Cc1cnc(Nc2cc(C)n(C)n2)nc1-c1c[nH]c2c(N3Cc4c(cccc4-c4ccc(C#N)cc4)C3=O)cccc12` [Example 432, 4-(2-(3-(2-((1,5-dimethyl-1H-pyrazol-3-yl)amino)-5-methylpyrimidin-4-yl)-1H-indol-7-yl)-1-oxoisoindolin-4-yl)benzonitrile], under 10 nM.
Next, `Cc1cnc(Nc2cc(C)n(C)n2)nc1-c1c[nH]c2c(NC(=O)CN3CC[C@H](Oc4nccc(-c5ccccc5)n4)C3)cccc12` [Example 254, (S)-N-(3-(2-((1,5-dimethyl-1H-pyrazol-3-yl)amino)-5-methylpyrimidin-4-yl)-1H-indol-7-yl)-2-(3-((4-phenylpyrimidin-2-yl)oxy)pyrrolidin-1-yl)acetamide]: 10 to 100 nM; `Cc1cnc(Nc2cc(C)n(C)n2)nc1-c1c[nH]c2c(N3Cc4c(cccc4-c4ccc(C(N)=O)nc4)C3=O)cccc12` [Example 474, 5-(2-(3-(2-((1,5-dimethyl-1H-pyrazol-3-yl)amino)-5-methylpyrimidin-4-yl)-1H-indol-7-yl)-1-oxoisoindolin-4-yl)picolinamide]: under 10 nM; `Cc1cnc(Nc2cc(C)n(C)n2)nc1-c1c[nH]c2c(NC(=O)CN3CC[C@H](Oc4cc(C(N)=O)on4)C3)cccc12` [Example 122, (S)-3-((1-(2-((3-(2-((1,5-dimethyl-1H-pyrazol-3-yl)amino)-5-methylpyrimidin-4-yl)-1H-indol-7-yl)amino)-2-oxoethyl)pyrrolidin-3-yl)oxy)isoxazole-5-carboxamide]: 10 to 100 nM.
`Cc1cnc(Nc2cc(C)n(C)n2)nc1-c1c[nH]c2c(NC(=O)CN3CC[C@@H](Nc4ccncc4)C3)cccc12` [Example 49, (R)-N-(3-(2-((1,5-dimethyl-1H-pyrazol-3-yl)amino)-5-methylpyrimidin-4-yl)-1H-indol-7-yl)-2-(3-(pyridin-4-ylamino)pyrrolidin-1-yl)acetamide]: the IC50 was in the range of 10 to 100 nM.
Next, `Cc1cnc(Nc2cc(C)n(C)n2)nc1-c1c[nH]c2c(N3Cc4cccc(-c5cn[nH]c5)c4C3=O)cccc12` [Example 386, 2-(3-(2-((1,5-dimethyl-1H-pyrazol-3-yl)amino)-5-methylpyrimidin-4-yl)-1H-indol-7-yl)-7-(1H-pyrazol-4-yl)isoindolin-1-one]: 10 to 100 nM; `Cc1cnc(Nc2cc(C)n(C)n2)nc1-c1c[nH]c2c(N3Cc4c(NC(=O)N5CCNC5=O)cccc4C3=O)cccc12` [Example 313, N-(2-(3-(2-((1,5-dimethyl-1H-pyrazol-3-yl)amino)-5-methylpyrimidin-4-yl)-1H-indol-7-yl)-1-oxoisoindolin-4-yl)-2-oxoimidazolidine-1-carboxamide]: under 10 nM.
Take `Cc1cnc(Nc2cc(C)n(C)n2)nc1-c1c[nH]c2c(NC(=O)CN3CC[C@H](Oc4cc(-c5cc(Cl)ccc5F)nc(N)n4)C3)cccc12` [Example 98, (S)-2-(3-((2-amino-6-(5-chloro-2-fluorophenyl)pyrimidin-4-yl)oxy)pyrrolidin-1-yl)-N-(3-(2-((1,5-dimethyl-1H-pyrazol-3-yl)amino)-5-methylpyrimidin-4-yl)-1H-indol-7-yl)acetamide]: the IC50 lay in the range of 100 to 1000 nM.
Next, `Cc1cnc(Nc2cc(C)n(C)n2)nc1-c1c[nH]c2c(N3Cc4c(N)cccc4C3=O)cccc12` [Example 272, 4-amino-2-(3-(2-((1,5-dimethyl-1H-pyrazol-3-yl)amino)-5-methylpyrimidin-4-yl)-1H-indol-7-yl)isoindolin-1-one]: under 10 nM.
As for `Cc1cnc(Nc2cc(C)n(C)n2)nc1-c1c[nH]c2c(NC(=O)CN3CC[C@H](Oc4ccnc(NC5CC5)n4)C3)c(N(C)C)ccc12` [Example 3, (S)-2-(3-((2-(cyclopropylamino)pyrimidin-4-yl)oxy)pyrrolidin-1-yl)-N-(3-(2-((1,5-dimethyl-1H-pyrazol-3-yl)amino)-5-methylpyrimidin-4-yl)-6-(dimethylamino)-1H-indol-7-yl)acetamide], the figure is under 10 nM; as for `Cc1cnc(Nc2cc(C)n(C)n2)nc1-c1c[nH]c2c(N3Cc4c(cccc4-c4cnc(N)nc4)C3=O)cccc12` [Example 418, 4-(2-aminopyrimidin-5-yl)-2-(3-(2-((1,5-dimethyl-1H-pyrazol-3-yl)amino)-5-methylpyrimidin-4-yl)-1H-indol-7-yl)isoindolin-1-one], under 10 nM; as for `COc1ccc2c(c1)C(=O)N(c1cccc3c(-c4nc(Nc5cc(C)n(C)n5)ncc4C)c[nH]c13)C2` [Example 279, 2-(3-(2-((1,5-dimethyl-1H-pyrazol-3-yl)amino)-5-methylpyrimidin-4-yl)-1H-indol-7-yl)-6-methoxyisoindolin-1-one], 10 to 100 nM.
Next, `CCCCNc1nccc(O[C@H]2CCN(CC(=O)Nc3cccc4c(-c5nc(Nc6cc(C)n(C)n6)ncc5C)c[nH]c34)C2)n1` [Example 205, (S)-2-(3-((2-(butylamino)pyrimidin-4-yl)oxy)pyrrolidin-1-yl)-N-(3-(2-((1,5-dimethyl-1H-pyrazol-3-yl)amino)-5-methylpyrimidin-4-yl)-1H-indol-7-yl)acetamide]: under 10 nM; `Cc1cnc(Nc2cc(C)n(C)n2)nc1-c1c[nH]c2c(N3Cc4c(NC(=O)c5cc(O)ncn5)cccc4C3=O)cccc12` [Example 339, N-(2-(3-(2-((1,5-dimethyl-1H-pyrazol-3-yl)amino)-5-methylpyrimidin-4-yl)-1H-indol-7-yl)-1-oxoisoindolin-4-yl)-6-hydroxypyrimidine-4-carboxamide]: under 10 nM.
Regarding `Cc1cnc(Nc2cc(C)n(C)n2)nc1-c1c[nH]c2c(N3Cc4c(cccc4-c4ccoc4)C3=O)cccc12` [Example 393, 2-(3-(2-((1,5-dimethyl-1H-pyrazol-3-yl)amino)-5-methylpyrimidin-4-yl)-1H-indol-7-yl)-4-(furan-3-yl)isoindolin-1-one], the IC50 is under 10 nM.
Next, `CCN(C)c1ccnc(O[C@H]2CCN(CC(=O)Nc3cccc4c(-c5nc(Nc6cc(C)n(C)n6)ncc5C)c[nH]c34)C2)n1` [Example 171, (S)-N-(3-(2-((1,5-dimethyl-1H-pyrazol-3-yl)amino)-5-methylpyrimidin-4-yl)-1H-indol-7-yl)-2-(3-((4-(ethyl(methyl)amino)pyrimidin-2-yl)oxy)pyrrolidin-1-yl)acetamide]: under 10 nM.
